≈ marks a conversion by molar mass, not a printed value.
Columns and labels:
S. aureus = assay: microbe, parasite or virus in culture; assay type: cell-based; conditions: for antimicrobial activity at the concentrations tested: S. aureus, up to 64 mg/mL
Description: (§1) Fresh cultures of bacteria are made from frozen stock stored at -80° C. To inoculate a fresh culture, the stock is removed from the freezer and continually kept frozen by being placed on dry ice. A small amount is removed using a sterile wooden applicator and transferred to a 50 mL culture flask, with screw cap, containing 10 mL of broth medium. The culture is incubated at 37° C. on an orbital shaker at 200 rpm overnight. The various bacteria and broth media used are:
(§2) The following day, the cultures are subcultured by transferring […] (O.D. dependent) to a new culture flask containing 20 mL broth. The subcultures are incubated at 37° C. on a shaker (200 rpm) and the bacteria are allowed to grow to mid-log phase. This is usually around 1×10^8 cfu/mL, determined by measuring the O.D. of the subculture. The correlation between O.D. and growth of each bacteria has been previously established.
(§3) Once the proper O.D. has been obtained, a 200- or 400-fold dilution is made of the subculture and 1 mL of this dilution is added to 1 mL of compound or antibiotic (i.e. 2-fold dilution) to give a final concentration of 0, 2, 4, 8, 16, 32, and 64 mg/mL compound or antibiotic. A 100-fold dilution is made from the control culture (0 mg/mL) and […] samples (i.e. 1000-fold dilution) are plated onto a TSA (tryptic soy agar; Difco). The cultures are incubated overnight at 37° C. on an orbital shaker (200 rpm). The TSA plates are also incubated overnight at 37° C.
(§4) The following day, the cultures are examined for growth or turbidity. […] samples (i.e. 10-fold dilution) of any of the cultures showing no turbidity, i.e. no growth, are plated onto TSA. The plates are incubated overnight at 37° C. and the number of cfu, if any, are counted. The control TSA plates are counted for the number of cfu for comparison with the culture plates.
(§5) MIC (minimal inhibitory concentration) is determined to be the lowest concentration at which growth of the bacteria is arrested. MBC (minimal bactericidal concentration) is determined to be the lowest concentration at which the bacteria are being killed.

E. coli = assay: Antimicrobial assay; assay type: cell-based; conditions: up to 64 mg/mL
Description: as §1, §2, §3, §4, §5

P. aeruginosa = assay: Antimicrobial assay; assay type: cell-based; conditions: up to 64 mg/mL
Description: as §1, §2, §3, §4, §5

S. aureus (ATCC 25923) = assay: Filter binding assay of Tc-99m-labelled conjugates; conditions: Tc-99m-labelled conjugate, 37° C.
Description: S. aureus (ATCC 25923)→TSB
(§6) The cultures are then subcultured by removing 50-150 mL of the culture (O.D. dependent) and transferring to a 50 mL culture flask containing 20 mL broth. The subcultures are incubated at 37° C. or 30° C. until a growth concentration of 10^8 cfu (colony forming unit)/mL is reached. The concentration of each microorganism is determined by reading the optical density (O.D.) of the subculture using a spectrophotometer. The correlation between O.D. and growth of each microorganism has been previously established.
(§7) The flasks are incubated in a shaking water bath (200 rpm) at 37° C. […] There is also a background which is a flask containing broth with no microorganism and to which the radioactivity is also added. […] The filters are then assayed for radioactivity using a gamma well counter (Cobra II; Canberra Packard). […]

E. coli (ATCC 25922) = assay: Filter binding assay of Tc-99m-labelled conjugates; conditions: Tc-99m-labelled conjugate, 37° C.
Description: E. coli (ATCC 25922)→Tryptic Soy Broth (TSB; Difco)
as §6, §7

C. albicans (ATCC 14053) = assay: Filter binding assay of Tc-99m-labelled conjugates; conditions: Tc-99m-labelled conjugate
Description: (§8) *Note: C. albicans has a longer growth cycle than the other microorganisms and, therefore, the culture is incubated for 2 days. Also, the optimum growth temperature for C. albicans is 30° C.
C. albicans (ATCC 14053)→YM Broth (YMB; Difco)
The cultures are then subcultured by removing 50-150 mL of the culture (O.D. dependent) and transferring to a 50 mL culture flask containing 20 mL broth. […] The concentration of each microorganism is determined by reading the optical density (O.D.) of the subculture using a spectrophotometer.
as §7

[1] = test system: P. aeruginosa (ATCC PAO-PR1); assay: Filter binding assay of Tc-99m-labelled conjugates; conditions: Tc-99m-labelled conjugate, 37° C.
Description: Frozen cultures of bacteria are stored in vials at -80° C. until use. To inoculate a fresh bacterial culture, the vial of bacteria is removed from the freezer and continually kept frozen by being placed on dry ice. A small amount is removed using a sterile wooden applicator and transferred to a 50 mL culture flask, with screw cap, containing 10 mL of broth medium. The culture is incubated at 37° C. on a shaker at 200 rpm overnight*. The various microorganisms or compounds and broth media used are:
P. aeruginosa (ATCC PAO-PR1)→TSB
The cultures are then subcultured by removing […] of the culture (O.D. dependent) and transferring to a 50 mL culture flask containing 20 mL broth. The subcultures are incubated at 37° C. or 30° C. until a growth concentration of 10^8 cfu (colony forming unit)/mL is reached. The concentration of each microorganism is determined by reading the optical density (O.D.) of the subculture using a spectrophotometer. […]
Once the proper O.D. has been reached, 10 mL of the subculture is transferred to a 15 mL culture flask and 1×10^6 cpm of Tc-99m-labelled compound is added. […] There is also a background which is a flask containing broth with no microorganism and to which the radioactivity is also added. […] The filters are then assayed for radioactivity using a gamma well counter (Cobra II; Canberra Packard). […]

[2] = Filter binding assay of Tc-99m-labelled conjugates; conditions: Tc-99m-labelled conjugate, zymosan suspension 50 mg/mL
Description: as §8
The flasks are incubated in a shaking water bath (200 rpm) at 37° C. A 10 mL zymosan suspension at 50 mg/mL and a 0.5% carrageenan mixture are also made. There is also a background which is a flask containing broth with no microorganism and to which the radioactivity is also added. At various time intervals, 200 mL of the cultures, suspensions, and the background is removed and filtered through 25 mm diam., 22 mm, cellulose acetate/nitrate, membrane filters (Millipore) using a Millipore vacuum manifold. The filters are washed 3× with 1 mL PBS. The filters are then assayed for radioactivity using a gamma well counter (Cobra II; Canberra Packard). The time intervals at which the cultures are sampled are: […]

Molecule | antimicrobial activity at the concentrations tested (S. aureus) | MBC (S. aureus; Staphylococcus aureus, read-out: MBC (minimal bactericidal concentration)) [mg/mL] | antimicrobial activity at the concentrations tested (E. coli) | antimicrobial activity at the concentrations tested (P. aeruginosa) | Filter Binding Assay Results at 2 h, S. aureus (S. aureus (ATCC 25923)) [%] | Filter Binding Assay Results at 2 h, E. coli (E. coli (ATCC 25922)) [%] | Filter Binding Assay Results at 2 h, C. albicans (C. albicans (ATCC 14053)) [%] | Filter Binding Assay Results at 2 h, P. aeruginosa [1] [%] | Filter Binding Assay Results at 2 h, Zymosan [2] [%] | MBC (minimal bactericidal concentration) (S. aureus) [mg/mL] | MIC (minimal inhibitory concentration) (S. aureus) [mg/mL]
CN[C@H](CC(C)C)C(=O)N[C@H]1C(=O)N[C@@H](CC(N)=O)C(=O)N[C@H]2C(=O)N[C@H]3C(=O)N[C@H](C(=O)N[C@H](C(=O)O)c4cc(O)cc(O)c4-c4cc3ccc4O)[C@H](O)c3ccc(c(Cl)c3)Oc3cc2cc(c3O[C@@H]2O[C@H](CO)[C@@H](O)[C@H](O)[C@H]2O[C@H]2C[C@](C)(N)[C@H](O)[C@H](C)O2)Oc2ccc(cc2Cl)[C@H]1O [Vancomycin, reference compound] | antimicrobial against only S. aureus | 32 to 64 (≈ 22.1 to 44.2 mM) | antimicrobial against only S. aureus | antimicrobial against only S. aureus |  |  |  |  |  |  | 
CN[C@H](CC(C)C)C(=O)N[C@H]1C(=O)N[C@@H](CC(N)=O)C(=O)N[C@H]2C(=O)N[C@H]3C(=O)N[C@H](C(=O)N[C@H](C(=O)NCCCNC(=O)CNC(=O)C(CSCNC(C)=O)NC(=O)C(CO)NC(=O)CN(C)C)c4cc(O)cc(O)c4-c4cc3ccc4O)[C@H](O)c3ccc(c(Cl)c3)Oc3cc2cc(c3O[C@@H]2O[C@H](CO)[C@@H](O)[C@H](O)[C@H]2O[C@H]2C[C@](C)(N)[C@H](O)[C@H](C)O2)Oc2ccc(cc2Cl)[C@H]1O (stereo partly drawn) [(IA), DimethylGly-Ser-Cys(Acm)-Gly-NH(CH2)3 NH-Vancomycin] | antimicrobial against only S. aureus |  | antimicrobial against only S. aureus | antimicrobial against only S. aureus | 48 | 31 | 21 | 25 | 35 | 32 (≈ 16.8 mM) | 16 to 32
DimethylGly-Ser-Cys(Acm)-(βAla)3 -Lys(N^ε -Vancomycin)-Gly-OH [(IB)] |  |  |  |  | 22 | 18 | 5 |  | 42 |  | 

Source: patent US6017511A, “Glycopeptide-chelator conjugates” (Resolution Pharmaceuticals Inc., priority 1997, dated 2000)
